In data set [1] the test system is Primary mouse B cells (WT). Nature of the data set: Micronuclei assay. The class given is cell-based. Particulars: all genotypes tested (WT, AID−/−, and p53−/−), 5 μg/mL, 3 d.
Another data set relates to MEC-1 cells. Briefly: Micronuclei assay. As to conditions: cyclophosphamide treatment. The class given is cell-based, human.
Data set [2] deals with AID-expressing mouse B-lymphocytes.
In data set [3] the test system is primary splenic B-cells from WT (AID-expressing) mice. Particulars: Ishida et al., 2009; Lamont et al., 2013; cited from earlier work.
Data set [4] relates to Primary AID-expressing B-cells. Nature of the data set: Cell survival analysis. The class given is cell-based. As to conditions: 100 nM versus vehicle (DMSO). As for the experimental part:
FIG. 27 depicts a graph of cell survival analysis of primary AID-expressing B-cells treated with C-1523-1AD4 (100 nM) versus vehicle (DMSO).
Primary AID-expressing B-cells were sensitive to C-1523-1AD4 (FIG. 27).

For data set [5], the system named is non-Hodgkin's lymphoma model. Briefly: Non-Hodgkin's lymphoma model. Particulars: in vivo. The procedure: (§1) The effects of C-1523 have been tested in vitro in cultured cancer cells and in vivo with human cell samples. Preclinical pharmacokinetic analyses were conducted to determine the fate of the compound as it is administered.
Data set [6] has as its system Primary splenic B-cells from AID-expressing mice. Nature of the data set: Cell viability of primary splenic B-cells, AID-expressing versus AID-negative mice. In kind it is cell-based. Particulars: compared to primary splenic B-cells in AID-negative mice. From the text: Primary splenic B-cells from AID-expressing mice were exposed to C-1523-1a and the BTK inhibitor ibrutinib and cell viability was compared to primary splenic B-cells in AID-negative mice (FIG. 9).

Data set [7] is described as follows: Pharmacokinetics after single intravenous injection or oral gavage. In kind it is in vivo, Sprague Dawley rats. The procedure:
C-1523-1A was formulated in PBS with 5% DMSO and given via single intravenous injection (1 milligram per kilogram) or by oral gavage to Sprague Dawley rats (2 milligrams per kilogram). Plasma concentrations were measure by mass spectrometry at t=15 min, t=30 min, t=1 hr, t=2 hr, t=4 hr, and t=8 hr for the intravenous cohort and at t=1 hr, t-2 hr, t-3 hr, t-4 hr, t-5 hr, t-6 hr. […] Oral availability is 2-3% (FIG. 3).

Data set [8] can be described thus: Plasma concentration after administration of 2, 10, or 20 milligrams per kilogram. In kind it is in vivo, Sprague Dawley rats. Particulars: Sprague Dawley, rat, 20 mg/kg dosing. The procedure: Pharmacokinetic measurements of DIDS, C-1523, and C-1523-1a following oral and intravenous administration to Sprague Dawly rats were made (FIGS. 4-6) and the plasma concentration of C-1523-1a at t=15 min, t=30 min, t=1 hr, t=2 hr, t=8 hr, and t=24 hr following administration of 2, 10, or 20 milligrams per kilogram to Sprague Dawley rats was determined (FIG. 7).
as §1

A further data set has as its system primary B-cells (AID+). Nature of the data set: Dose response in primary B-cells (AID+). In kind it is cell-based. Particulars: FIG. 10. The procedure:
Dose responses for C-1523 (blue) and C-1523-1a (red) in primary B-cells (AID+) was determined (FIG. 10).

As to `O=P1(N(CCCl)CCCl)NCCCO1` (stereo not drawn) [cyclophosphamide, reference compound], in [1], the micronuclei result is “approximately 9%”. Also, the “micronuclei relative to primary cells” value with MEC-1 cells is on record as “approximately half as much micronuclei as primary cells”.

Consider `O=S(=O)(O)c1cc(N=C=S)ccc1C=Cc1ccc(N=C=S)cc1S(=O)(=O)O` [DIDS, 4,4′-diisothiocyanatostilbene-2,2′-disulfonic acid, reference compound], for which the “concentration eliciting AID-specific cytotoxicity” value in data set [2] is 150 µM. Also, the cell death entry in data set [3] is recorded as “induces cell death in primary B-lymphocytes”.

For “disodium (E)-((5- acetamido-2-(2-(N- isobutyrylsulfamoyl)-4- (3-isopropylthioureido) styryl)phenyl)sulfonyl) (isobutyryl)amide [C-1523-1AD4]”, the “sensitivity (cell survival)” value in data set [4] is given as “sensitive”.

For orientation: AUC means the area under the concentration-time curve, a measure of exposure. Low readings indicate low exposure, high ones high exposure. As a reminder, the half-life is the time needed for the level to fall by half in the phase considered. A lower half-life goes with fast loss. In the case of `CC(=O)Nc1ccc(/C=C/c2ccc(NC(=S)NC(C)C)cc2S(N)(=O)=O)c(S(N)(=O)=O)c1` [C-1523-1a, (E)-N-(4-(4-(3-isopropylthioureido)-2-sulfamoylstyryl)-3-sulfamoylphenyl)acetamide], the tumors result in data set [5] is recorded as “successfully reduced tumors”. The “potency and selectivity for AID+ cells (cell viability)” value in data set [6] is “surprisingly potent and selective for AID+ cells”. The AUC in [7] (Sprague Dawley, rat, plasma, single intravenous injection 1 milligram per kilogram) stood at 971 ng·h/mL. The half-life in data set [7] (Sprague Dawley, rat, plasma, single intravenous injection 1 milligram per kilogram, PBS with 5% DMSO) is 90 min; in data set [8] it was roughly 360 min. The Vd in data set [7] (Sprague Dawley, rat, plasma, single intravenous injection 1 milligram per kilogram, read-out: Vss) turned out to be 0.29 L/kg. Moreover, in data set [7] (oral gavage 2 milligrams per kilogram), the Oral availability is 2-3%. In addition, where the note is “in vivo”, the acute toxicity entry is reported as “almost no acute toxicity”. Also, the “tolerance to prolonged drug exposure” value (single and multiple dose) was “excellent tolerance”. Moreover, in the data set on primary B-cells (AID+), the “concentration below which response is consistent” value is “below 10 nM”.
